Measured values taken from paper PMC7721589, “Synthesis and structure-activity relationships for tetrahydroisoquinoline-based inhibitors of Mycobacterium tuberculosis” (Bioorganic & Medicinal Chemistry, 2020).
Converted amounts (≈) assume the structure as drawn.

What was measured:
[1] = Microsomal clearance in mouse liver microsomes; also: unit not given here
[2] = system: Vero green monkey-derived epithelial kidney cells; assay: Mammalian cytotoxicity in Vero cells; format: cell-based; settings: Table 1
[3] = system: M.tb strain H37Rv; assay: MIC against M.tb H37Rv under aerobic (replicating; MABA) conditions; format: cell-based, Mycobacterium tuberculosis; settings: MIC90, Table 1
[4] = Stability in CDCl3 solution; format: physicochemical; settings: over 1–2 days
Description: Note: The X = OMe compounds 8 and 9 were unstable in CDCl3 solution over 1–2 days.

[5] = system: M.tb strain H37Rv; assay: MIC against M.tb H37Rv under non-replicating (LORA) conditions; settings: MIC90, Table 1
[6] = Microsomal clearance in human liver microsomes; also: unit not given here
[7] = molecular target: human mitochondrial ATP synthase (Homo sapiens, UniProt P00846+P05496); assay: Inhibition of human mitochondrial ATP synthase; format: biochemical
[8] = molecular target: M. smegmatis ATP synthase (Mycolicibacterium smegmatis, UniProt A0R205+A0R206); assay: Inhibition of mycobacterial ATP synthase; format: biochemical; settings: M. smegmatis ATP synthase

Sequence of human mitochondrial ATP synthase (P05496 62-136): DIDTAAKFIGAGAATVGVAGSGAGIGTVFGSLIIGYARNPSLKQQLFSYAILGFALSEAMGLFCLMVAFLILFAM
Sequence of human mitochondrial ATP synthase (P00846 whole entry): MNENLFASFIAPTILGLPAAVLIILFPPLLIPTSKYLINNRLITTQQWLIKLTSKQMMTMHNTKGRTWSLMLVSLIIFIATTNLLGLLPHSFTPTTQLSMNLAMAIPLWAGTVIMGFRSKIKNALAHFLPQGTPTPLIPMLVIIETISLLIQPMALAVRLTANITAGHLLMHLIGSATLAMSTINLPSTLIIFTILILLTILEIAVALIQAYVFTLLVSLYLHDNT
Sequence of human mitochondrial ATP synthase (P06576 48-529, further chain): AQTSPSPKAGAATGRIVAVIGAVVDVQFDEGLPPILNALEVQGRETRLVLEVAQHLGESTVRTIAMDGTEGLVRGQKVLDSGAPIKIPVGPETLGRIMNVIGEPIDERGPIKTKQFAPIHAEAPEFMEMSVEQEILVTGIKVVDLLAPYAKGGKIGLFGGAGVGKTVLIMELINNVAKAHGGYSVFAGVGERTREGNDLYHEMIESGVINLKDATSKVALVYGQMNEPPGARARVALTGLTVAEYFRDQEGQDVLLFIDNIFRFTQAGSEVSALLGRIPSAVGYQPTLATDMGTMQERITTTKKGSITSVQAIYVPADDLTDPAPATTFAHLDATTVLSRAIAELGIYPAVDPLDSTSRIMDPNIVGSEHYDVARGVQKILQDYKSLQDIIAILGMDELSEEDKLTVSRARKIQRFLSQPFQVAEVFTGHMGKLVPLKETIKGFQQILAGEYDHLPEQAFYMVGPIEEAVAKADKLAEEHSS
Sequence of human mitochondrial ATP synthase (P25705 44-553, further chain): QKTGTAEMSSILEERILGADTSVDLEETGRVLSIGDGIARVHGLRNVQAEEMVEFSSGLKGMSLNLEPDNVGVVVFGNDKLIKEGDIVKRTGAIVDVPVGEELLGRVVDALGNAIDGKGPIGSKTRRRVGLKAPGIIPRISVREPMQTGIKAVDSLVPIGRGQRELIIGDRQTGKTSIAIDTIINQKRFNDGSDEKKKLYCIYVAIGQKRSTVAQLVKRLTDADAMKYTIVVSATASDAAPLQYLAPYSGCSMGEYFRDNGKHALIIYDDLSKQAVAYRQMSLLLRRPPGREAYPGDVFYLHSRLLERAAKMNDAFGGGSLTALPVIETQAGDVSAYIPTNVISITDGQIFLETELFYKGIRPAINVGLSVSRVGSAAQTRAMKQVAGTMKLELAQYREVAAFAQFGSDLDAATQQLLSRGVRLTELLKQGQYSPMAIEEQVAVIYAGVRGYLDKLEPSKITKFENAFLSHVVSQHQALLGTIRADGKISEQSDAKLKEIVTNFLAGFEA
Sequence of human mitochondrial ATP synthase (P30049 23-168, further chain): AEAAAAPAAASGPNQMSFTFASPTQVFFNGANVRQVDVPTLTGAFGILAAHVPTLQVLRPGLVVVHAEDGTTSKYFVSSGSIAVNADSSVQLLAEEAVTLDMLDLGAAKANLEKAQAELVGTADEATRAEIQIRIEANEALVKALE
Sequence of human mitochondrial ATP synthase (P36542 26-298, further chain): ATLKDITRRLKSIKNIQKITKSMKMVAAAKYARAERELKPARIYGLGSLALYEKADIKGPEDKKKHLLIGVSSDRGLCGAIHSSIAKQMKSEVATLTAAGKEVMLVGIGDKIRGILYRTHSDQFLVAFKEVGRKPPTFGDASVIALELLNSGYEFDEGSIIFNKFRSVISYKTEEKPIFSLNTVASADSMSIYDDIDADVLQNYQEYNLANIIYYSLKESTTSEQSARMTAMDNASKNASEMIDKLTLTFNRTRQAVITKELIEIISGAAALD

Compound: COc1ccc(N2CCN(C)CC2)c2c1CCN(C(=O)Nc1ccc(-c3ccc(Cl)cc3C)cn1)C2 [Compound 8, N-(5-(4-Chloro-2-methylphenyl)pyridin-2-yl)-5-methoxy-8-(4-methylpiperazin-1-yl)-3,4-dihydroisoquinoline-2(1H)-carboxamide]
- MLM Clint [1]: 42
- IC50 VERO [2]: 12 mg/L (≈ 23.7 µM)
- MIC MABA [3]: 1.9 mg/L (≈ 3.75 µM)
- stability in CDCl3 solution [4]: unstable
- MIC LORA [5]: 3.6 mg/L (≈ 7.11 µM)
- HLM Clint [6]: 17
- Mamm. ATPsynth IC50 [7]: 16 mg/L
- M. smeg ATPsynth IC50 [8]: 4.2 mg/L

Compound: N-(5-(3,5-bis(trifluoromethyl)phenyl)pyridin-2-yl)-5-methoxy-8-(4-methylpiperazin-1-yl)-3,4-dihydroisoquinoline-2(1H)-carboxamide [Compound 9]
- IC50 VERO [2]: 19 mg/L
- MIC MABA [3]: 7.9 mg/L
- stability in CDCl3 solution [4]: unstable
- MIC LORA [5]: 12 mg/L

Compound: N-(5-(4-(tert-butyl)phenyl)pyridin-2-yl)-5-methyl-8-(4-methylpiperazin-1-yl)-3,4-dihydroisoquinoline-2(1H)-carboxamide [Compound 7]
- MLM Clint [1]: 56
- IC50 VERO [2]: 18 mg/L
- MIC MABA [3]: 1.4 mg/L
- MIC LORA [5]: 3.4 mg/L
- HLM Clint [6]: 41

Compound: N-(5-(4-chloro-2-methylphenyl)pyridin-2-yl)-5-methyl-8-(4-methylpiperazin-1-yl)-3,4-dihydroisoquinoline-2(1H)-carboxamide [Compound 6]
- MLM Clint [1]: 35
- IC50 VERO [2]: 22 mg/L
- MIC MABA [3]: 1.9 mg/L
- MIC LORA [5]: 2.4 mg/L
- HLM Clint [6]: 22
- Mamm. ATPsynth IC50 [7]: 23 mg/L
- M. smeg ATPsynth IC50 [8]: 5.5 mg/L
